Format in all cases: functional
Assay [1] relates to Staphylococcus aureus. Briefly: Antibacterial activity against Staphylococcus aureus KCTC 4220 after 24 hrs by two-fold serial dilution method. To be noted: KCTC 4220, 24 h.
Assay [2] concerns Staphylococcus aureus. The assay is described as follows: Antibacterial activity against Staphylococcus aureus KCTC 209 after 24 hrs by two-fold serial dilution method. To be noted: KCTC 209, 24 h.
Assay [3] has as its system Staphylococcus aureus. The assay is described as follows: Antibacterial activity against Staphylococcus aureus KCTC 503 after 24 hrs by two-fold serial dilution method. To be noted: KCTC 503, 24 h.
Another assay concerns Escherichia coli. The assay is described as follows: Antibacterial activity against Escherichia coli 1356 after 24 hrs by two-fold serial dilution method. To be noted: Escherichia coli, 1356, 24 h.
In assay [4] the test system is Staphylococcus aureus. Briefly: Antibacterial activity against methicillin-resistant Staphylococcus aureus CCARM 3167 after 24 hrs by two-fold serial dilution method. To be noted: CCARM 3167, 24 h.
The subject of assay [5] is Staphylococcus aureus. Briefly: Antibacterial activity against methicillin-resistant Staphylococcus aureus CCARM 3506 after 24 hrs by two-fold serial dilution method. As to conditions: CCARM 3506, 24 h.
Assay [6] has as its system Staphylococcus aureus. Briefly: Antibacterial activity against quinolone-resistant Staphylococcus aureus CCARM 3505 after 24 hrs by two-fold serial dilution method. As to conditions: CCARM 3505, 24 h.
In assay [7] the test system is Staphylococcus aureus. The assay is described as follows: Antibacterial activity against quinolone-resistant Staphylococcus aureus CCARM 3519 after 24 hrs by two-fold serial dilution method. To be noted: CCARM 3519, 24 h.

≈ marks a conversion by molar mass, not a printed value. Bounds are passed on as bounds.

The term MIC denotes the lowest concentration that inhibits growth of the organism. Higher therefore signals a need for much substance. In the case of `O=C(COc1ccc(/C=C2\SC(=S)N([C@@H](Cc3ccc(O)cc3)C(=O)O)C2=O)cc1)c1ccccc1F`, the MIC with Staphylococcus aureus [1] is 32 µg/mL (≈ 59.5 µM); with Staphylococcus aureus [2] it was 8 µg/mL (≈ 14.9 µM); against Staphylococcus aureus [3] it was 16 µg/mL (≈ 29.8 µM); against Escherichia coli, > 64 µg/mL; against Staphylococcus aureus [4], 16 µg/mL (≈ 29.8 µM); in the assay with Staphylococcus aureus [5] it was 16 µg/mL (≈ 29.8 µM). Also, the minimum inhibitory concentration (MIC) in the assay on Staphylococcus aureus [6] and against Staphylococcus aureus [7] was 16 µg/mL (≈ 29.8 µM) throughout.

`Cc1ccc(C(=O)COc2ccc(/C=C3\SC(=S)N([C@@H](Cc4ccc(O)cc4)C(=O)O)C3=O)cc2)cc1`: the minimal inhibitory concentration (MIC) with Staphylococcus aureus [1] is 32 µg/mL (≈ 60 µM); in the assay on Staphylococcus aureus [2], 4 µg/mL (≈ 7.5 µM); against Staphylococcus aureus [3], 8 µg/mL (≈ 15 µM); against Escherichia coli, > 64 µg/mL; in the assay with Staphylococcus aureus [4], 16 µg/mL (≈ 30 µM); against Staphylococcus aureus [5] it was 16 µg/mL (≈ 30 µM). Further, the minimum inhibitory concentration (MIC) in the assay on Staphylococcus aureus [6] and against Staphylococcus aureus [7] was 16 µg/mL (≈ 30 µM) in each case.

In the case of `O=C(COc1ccc(/C=C2\SC(=S)N([C@@H](Cc3c[nH]c4ccccc34)C(=O)O)C2=O)cc1)c1ccccc1`, the minimal inhibitory concentration (MIC) was 8 µg/mL (≈ 14.7 µM) against Staphylococcus aureus [1]; 8 µg/mL (≈ 14.7 µM) against Staphylococcus aureus [2]; 8 µg/mL (≈ 14.7 µM) in the assay on Staphylococcus aureus [3]; > 64 µg/mL with Escherichia coli; 8 µg/mL (≈ 14.7 µM) in the assay on Staphylococcus aureus [4]; 8 µg/mL (≈ 14.7 µM) in the assay on Staphylococcus aureus [5]. Further, the minimal inhibitory concentration (MIC) in the assay with Staphylococcus aureus [6] and against Staphylococcus aureus [7] was 8 µg/mL (≈ 14.7 µM) throughout.

As for `O=C(COc1ccc(/C=C2\SC(=S)N([C@@H](Cc3ccccc3)C(=O)O)C2=O)cc1)c1ccc(Cl)cc1`, the minimal inhibitory concentration (MIC) in the assay with Staphylococcus aureus [1] was 4 µg/mL (≈ 7.43 µM); against Staphylococcus aureus [2] it was 4 µg/mL (≈ 7.43 µM); with Staphylococcus aureus [3], 8 µg/mL (≈ 14.9 µM); in the assay on Escherichia coli it was > 64 µg/mL; with Staphylococcus aureus [4] it was 4 µg/mL (≈ 7.43 µM); with Staphylococcus aureus [5], 4 µg/mL (≈ 7.43 µM). Further, the minimum inhibitory concentration (MIC) in the assay on Staphylococcus aureus [6] and with Staphylococcus aureus [7] was 4 µg/mL (≈ 7.43 µM) throughout.

As for `O=C(O)CN1C(=O)C(=Cc2ccc(/C=C/C(=O)c3ccc(Cl)cc3Cl)cc2)SC1=S`, the MIC in the assay on Staphylococcus aureus [1] is 2 µg/mL (≈ 4.18 µM); against Staphylococcus aureus [2] it was 2 µg/mL (≈ 4.18 µM); with Staphylococcus aureus [3], 2 µg/mL (≈ 4.18 µM); in the assay on Escherichia coli, > 64 µg/mL; against Staphylococcus aureus [4] it was 2 µg/mL (≈ 4.18 µM); in the assay with Staphylococcus aureus [5], 2 µg/mL (≈ 4.18 µM). The minimum inhibitory concentration (MIC) with Staphylococcus aureus [6] and against Staphylococcus aureus [7] was 2 µg/mL (≈ 4.18 µM) each time.

With `O=C(COc1ccc(/C=C2\SC(=S)N([C@@H](Cc3ccccc3)C(=O)O)C2=O)cc1)c1ccccc1Cl`, the minimum inhibitory concentration (MIC) in the assay with Staphylococcus aureus [1] was 8 µg/mL (≈ 14.9 µM); in the assay on Staphylococcus aureus [2] it was 8 µg/mL (≈ 14.9 µM); with Staphylococcus aureus [3] it was 8 µg/mL (≈ 14.9 µM); in the assay on Escherichia coli, > 64 µg/mL; in the assay on Staphylococcus aureus [4], 4 µg/mL (≈ 7.43 µM); in the assay with Staphylococcus aureus [5], 4 µg/mL (≈ 7.43 µM). Besides, the MIC in the assay with Staphylococcus aureus [6] and in the assay on Staphylococcus aureus [7] was 4 µg/mL (≈ 7.43 µM) in each case.

Take `O=C(COc1ccc(/C=C2\SC(=S)N([C@@H](Cc3c[nH]c4ccccc34)C(=O)O)C2=O)cc1)c1ccccc1F`: the MIC in the assay on Staphylococcus aureus [1] was 8 µg/mL (≈ 14.3 µM); with Staphylococcus aureus [2] it was 8 µg/mL (≈ 14.3 µM); against Staphylococcus aureus [3], 8 µg/mL (≈ 14.3 µM); against Escherichia coli it was > 64 µg/mL; against Staphylococcus aureus [4] it was 8 µg/mL (≈ 14.3 µM); against Staphylococcus aureus [5], 8 µg/mL (≈ 14.3 µM). The MIC in the assay with Staphylococcus aureus [6] and against Staphylococcus aureus [7] was 8 µg/mL (≈ 14.3 µM) in each case.

Take `O=C(COc1ccc(/C=C2\SC(=S)N([C@@H](Cc3ccccc3)C(=O)O)C2=O)cc1)c1ccc(Cl)cc1Cl`: the MIC against Staphylococcus aureus [1] was 8 µg/mL (≈ 14 µM); in the assay on Staphylococcus aureus [2], 8 µg/mL (≈ 14 µM); in the assay on Staphylococcus aureus [3], 8 µg/mL (≈ 14 µM); against Escherichia coli, > 64 µg/mL; with Staphylococcus aureus [4], 8 µg/mL (≈ 14 µM); in the assay with Staphylococcus aureus [5], 8 µg/mL (≈ 14 µM). The MIC against Staphylococcus aureus [6] and with Staphylococcus aureus [7] was 8 µg/mL (≈ 14 µM) throughout.

`COc1cccc(C(=O)COc2ccc(/C=C3\SC(=S)N([C@@H](Cc4ccc(O)cc4)C(=O)O)C3=O)cc2)c1`: the MIC against Staphylococcus aureus [1] is 32 µg/mL (≈ 58.2 µM); against Staphylococcus aureus [2], 8 µg/mL (≈ 14.6 µM); in the assay with Staphylococcus aureus [3], 8 µg/mL (≈ 14.6 µM); in the assay with Escherichia coli, > 64 µg/mL; against Staphylococcus aureus [4], 8 µg/mL (≈ 14.6 µM); in the assay with Staphylococcus aureus [5], 16 µg/mL (≈ 29.1 µM). Besides, the figures for the MIC against Staphylococcus aureus [6] and with Staphylococcus aureus [7] were 8 µg/mL (≈ 14.6 µM) and 16 µg/mL (≈ 29.1 µM), respectively.

With `O=C(COc1ccc(/C=C2\SC(=S)N([C@@H](Cc3ccc(O)cc3)C(=O)O)C2=O)cc1)c1ccccc1Cl`, the minimum inhibitory concentration (MIC) against Staphylococcus aureus [1] is 16 µg/mL (≈ 28.9 µM); against Staphylococcus aureus [2], 16 µg/mL (≈ 28.9 µM); with Staphylococcus aureus [3], 8 µg/mL (≈ 14.4 µM); against Escherichia coli it was > 64 µg/mL; against Staphylococcus aureus [4], 8 µg/mL (≈ 14.4 µM); in the assay on Staphylococcus aureus [5], 16 µg/mL (≈ 28.9 µM). The MIC against Staphylococcus aureus [6] was determined as 8 µg/mL (≈ 14.4 µM); in the assay with Staphylococcus aureus [7], 16 µg/mL (≈ 28.9 µM).

For `O=C(COc1ccc(/C=C2\SC(=S)N([C@@H](Cc3c[nH]c4ccccc34)C(=O)O)C2=O)cc1)c1ccccc1Cl`, the MIC is 8 µg/mL (≈ 13.9 µM) against Staphylococcus aureus [1]; 4 µg/mL (≈ 6.93 µM) against Staphylococcus aureus [2]; 4 µg/mL (≈ 6.93 µM) against Staphylococcus aureus [3]; > 64 µg/mL in the assay with Escherichia coli; 8 µg/mL (≈ 13.9 µM) against Staphylococcus aureus [4]; 8 µg/mL (≈ 13.9 µM) against Staphylococcus aureus [5]. The minimal inhibitory concentration (MIC) against Staphylococcus aureus [6] and against Staphylococcus aureus [7] was 8 µg/mL (≈ 13.9 µM) throughout.

Take `COc1cccc(C(=O)COc2ccc(/C=C3\SC(=S)N([C@@H](Cc4c[nH]c5ccccc45)C(=O)O)C3=O)cc2)c1`: the MIC against Staphylococcus aureus [1] is 8 µg/mL (≈ 14 µM); against Staphylococcus aureus [2], 8 µg/mL (≈ 14 µM); with Staphylococcus aureus [3], 8 µg/mL (≈ 14 µM); against Escherichia coli, > 64 µg/mL; with Staphylococcus aureus [4] it was 8 µg/mL (≈ 14 µM); with Staphylococcus aureus [5] it was 8 µg/mL (≈ 14 µM). The minimum inhibitory concentration (MIC) in the assay on Staphylococcus aureus [6] and against Staphylococcus aureus [7] was 8 µg/mL (≈ 14 µM) each time.

Consider `O=C(COc1ccc(/C=C2\SC(=S)N([C@@H](Cc3c[nH]c4ccccc34)C(=O)O)C2=O)cc1)c1ccccc1Br`, for which the MIC against Staphylococcus aureus [1] was 8 µg/mL (≈ 12.9 µM); against Staphylococcus aureus [2] it was 4 µg/mL (≈ 6.44 µM); against Staphylococcus aureus [3], 4 µg/mL (≈ 6.44 µM); against Escherichia coli, > 64 µg/mL; with Staphylococcus aureus [4] it was 4 µg/mL (≈ 6.44 µM); against Staphylococcus aureus [5], 8 µg/mL (≈ 12.9 µM). The values for the MIC against Staphylococcus aureus [6] and against Staphylococcus aureus [7] were 4 µg/mL (≈ 6.44 µM) and 8 µg/mL (≈ 12.9 µM), respectively.

Take `O=C(COc1ccc(/C=C2\SC(=S)N([C@@H](Cc3ccc(O)cc3)C(=O)O)C2=O)cc1)c1ccc(Br)cc1`: the MIC against Staphylococcus aureus [1] is 8 µg/mL (≈ 13.4 µM); against Staphylococcus aureus [2], 4 µg/mL (≈ 6.68 µM); with Staphylococcus aureus [3] it was 4 µg/mL (≈ 6.68 µM); against Escherichia coli, > 64 µg/mL; with Staphylococcus aureus [4], 8 µg/mL (≈ 13.4 µM); against Staphylococcus aureus [5], 8 µg/mL (≈ 13.4 µM). Further, the MIC in the assay on Staphylococcus aureus [6] and against Staphylococcus aureus [7] was 8 µg/mL (≈ 13.4 µM) throughout.

Consider `O=C(COc1ccc(/C=C2\SC(=S)N([C@@H](Cc3ccc(O)cc3)C(=O)O)C2=O)cc1)c1ccccc1Br`, for which the MIC in the assay with Staphylococcus aureus [1] was 32 µg/mL (≈ 53.5 µM); in the assay with Staphylococcus aureus [2], 16 µg/mL (≈ 26.7 µM); with Staphylococcus aureus [3], 16 µg/mL (≈ 26.7 µM); in the assay with Escherichia coli, > 64 µg/mL; with Staphylococcus aureus [4], 16 µg/mL (≈ 26.7 µM); in the assay on Staphylococcus aureus [5] it was 32 µg/mL (≈ 53.5 µM). Besides, the MIC with Staphylococcus aureus [6] is 16 µg/mL (≈ 26.7 µM); in the assay with Staphylococcus aureus [7], 32 µg/mL (≈ 53.5 µM).

As to `O=C(COc1ccc(/C=C2\SC(=S)N([C@@H](Cc3ccc(O)cc3)C(=O)O)C2=O)cc1)c1ccc(F)cc1`, the MIC in the assay on Staphylococcus aureus [1] was 8 µg/mL (≈ 14.9 µM); against Staphylococcus aureus [2], 8 µg/mL (≈ 14.9 µM); with Staphylococcus aureus [3], 8 µg/mL (≈ 14.9 µM); with Escherichia coli it was > 64 µg/mL; against Staphylococcus aureus [4], 8 µg/mL (≈ 14.9 µM); against Staphylococcus aureus [5], 8 µg/mL (≈ 14.9 µM). Further, the minimum inhibitory concentration (MIC) in the assay with Staphylococcus aureus [6] and in the assay with Staphylococcus aureus [7] was 8 µg/mL (≈ 14.9 µM) throughout.

The values are drawn from ChEMBL document CHEMBL2040848, “Synthesis and bioactivity evaluation of rhodanine derivatives as potential anti-bacterial agents” (2012).
